This is an account of results in patent US12285422B2, “Uses of piperidinyl-indole derivatives” (priority 2017, dated 2025).

Test [1] relates to human microvascular endothelial cell line (HMEC-1). Kind of test: C3 deposition on ADP-activated HMEC-1 exposed to STEC-HUS patient serum. Format: cell-based. The settings on record: for reduction of C3 deposition on ADP-activated HMEC-1: STEC-HUS patient serum, 4 hours, p<0.0001. As for the experimental part: As described in Morigi et al., 2011 (Morigi M, Galbusera M, Gastoldi S, Locatelli, M, Buelli, S, Pezzotta A, Pagani C, Noris M, Gobbi M, Stravalaci M, Rottoli D, Tedesco F, Remuzzi G and Joja C: 2011. Alternative pathway activation of complement by Shiga toxin promotes exuberant C3a formation that triggers microvascular thrombosis. J Immunol. 187(1):172-80), human microvascular endothelial cell line of dermal origin (HMEC-1, ATCC CRL-3243) were plated on glass slides and used when confluent. […]. At the end of the incubation step HMEC-1 were treated with fluorochrome-conjugated anti-human C3c. In each experiment, a pool of sera from healthy controls was tested in parallel with patient serum. A confocal inverted laser microscope was used for acquisition of the fluorescent staining on endothelial cell surface.
Fifteen fields per sample were acquired and the area occupied by the fluorescent staining was evaluated by automatic edge detection using built-in specific functions of the software Image J and expressed as pixel2 per field analyzed. The highest and lowest values were discarded and the mean±SE was calculated on the remaining 13 fields.
Results: Serum from patients with acute STEC-HUS induced a massive C3 deposition on ADP-activated endothelial cells in respect to sera from healthy controls (P<0.0001). […].

Test [2] deals with passive Heymann nephritis in rats. Kind of test: Passive Heymann nephritis in rats (model for membranous nephropathy). Format: in vivo, rat. The settings on record: for combined histopathology score: p<0.005; for reduction of proteinuria: twice daily oral gavage, 14 days post transfer, p<0.0001; for proteinuria: 60 mg/kg twice daily oral gavage starting 6 days post serum transfer. From the text:
4. FB Inhibitor Prevents the Development and Progression of Passive Heymann Nephritis in Rats
Passive Heymann nephritis in the rat is the most common animal model for membranous nephropathy (see Jefferson J A, Pippin J W and Shankland S J 2010. Experimental Models of membranous nephropathy. Drug Discov Today Dis Models. 7(1-2):27-33). It is induced by the transfer of a polyclonal serum derived from rabbits immunized with rat megalin and manifests inflammatory changes in the kidney that are highly reminiscent with the human disease. Significant proteinuria is observed 4 days after the antibody transfer and increases until 2 weeks post transfer.

`CCO[C@H]1CCN(Cc2c(OC)cc(C)c3[nH]ccc23)[C@H](c2ccc(C(=O)O)cc2)C1` [compound of embodiment 5, 4-((2S,4S)-4-ethoxy-1-((5-methoxy-7-methyl-1H-indol-4-yl)methyl)piperidin-2-yl)benzoic acid]: the figures for the “reduction of C3 deposition on ADP-activated HMEC-1” value in test [1] (1 microM) and in test [1] (10 microM) were 73% and 89%, respectively. The “C3 deposits on endothelial cells versus cells exposed to control sera” value in test [1] (10 microM, STEC-HUS serum) was “did not significantly differ”. The combined histopathology score in test [2] (prophylactic, 20 mg/kg, vehicle 2.2) was determined as 0.3; in test [2] (prophylactic, 60 mg/kg, vehicle 2.2), 0.4; in test [2] (therapeutic, 60 mg/kg twice daily oral gavage starting day 6, vehicle 2.7), 1.1. Moreover, the reduction of proteinuria in test [2] (prophylactic, 20 mg/kg/d) was determined as 82%; in test [2] (prophylactic, 60 mg/kg/d), 75%. The proteinuria in test [2] (therapeutic, day 6 (control 0.79)) was determined as 0.74; in test [2] (therapeutic, day 14 (control 1.93)) it was 0.81. The “effect on disease progression” value in test [2] (therapeutic, 60 mg/kg twice daily oral gavage starting after manifestation of proteinuria (6 days post serum transfer)) is given as “blocked further progression of the disease”.
